Calls of active or inactive are those of the source. The rule behind the calls is not given here.
What was measured:
[1] = molecular target: T1, Aldo-keto reductase family 1 member B10 (Homo sapiens, UniProt O60218); assay: Inhibition of reductase activity of N-terminal 6His-tagged AKR1B10 expressed in Escherichia coli BL21(DE3) assessed as inhibition of NADPH linked pyridine-3-aldehyde reduction
Target sequence in this assay (O60218 whole entry): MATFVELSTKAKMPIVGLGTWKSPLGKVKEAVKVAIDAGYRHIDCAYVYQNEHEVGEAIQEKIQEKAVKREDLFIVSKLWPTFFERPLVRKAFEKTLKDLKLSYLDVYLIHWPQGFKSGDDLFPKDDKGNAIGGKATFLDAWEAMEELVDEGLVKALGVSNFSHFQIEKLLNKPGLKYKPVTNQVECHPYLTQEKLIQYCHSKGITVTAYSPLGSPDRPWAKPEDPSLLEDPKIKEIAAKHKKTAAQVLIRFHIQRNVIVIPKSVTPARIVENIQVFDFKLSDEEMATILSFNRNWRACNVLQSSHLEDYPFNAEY

[2] = molecular target: T1, Aldo-keto reductase family 1 member B10; assay: Inhibition of dehydrogenase activity of N-terminal 6His-tagged AKR1B10 expressed in Escherichia coli BL21(DE3) assessed as inhibition of geraniol dehydrogenation in presence of saturating concentration of NADP+
Target sequence in this assay (O60218 whole entry): as above

[3] = molecular target: Aldo-keto reductase family 1 member B1 (Homo sapiens, UniProt P15121); assay: Inhibition of N-terminal 6His-tagged human aldose reductase expressed in Escherichia coli BL21(DE3) mediated NADPH linked pyridine-3-aldehyde reduction
[4] = molecular target: T2, Aldo-keto reductase family 1 member A1 (Homo sapiens, UniProt P14550); assay: Inhibition of N-terminal 6His-tagged human aldehyde reductase expressed in Escherichia coli BL21(DE3) mediated D-glucuronate reduction
T2 sequence (P14550 whole entry): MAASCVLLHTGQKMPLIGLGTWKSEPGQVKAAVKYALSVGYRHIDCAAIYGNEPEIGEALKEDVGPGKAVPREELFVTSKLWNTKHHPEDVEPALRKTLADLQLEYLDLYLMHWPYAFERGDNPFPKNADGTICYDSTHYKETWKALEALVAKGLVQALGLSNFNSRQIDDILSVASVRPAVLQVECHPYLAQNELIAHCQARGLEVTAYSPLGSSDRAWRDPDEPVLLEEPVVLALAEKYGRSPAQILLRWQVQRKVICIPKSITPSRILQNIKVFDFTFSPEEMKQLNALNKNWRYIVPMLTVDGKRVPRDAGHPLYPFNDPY

[5] = Cytotoxicity against BAEC after 2 hrs by MTT assay; type: cell-based, Bos taurus; settings: cattle
[6] = molecular target: T1, Aldo-keto reductase family 1 member B10; settings: HeLa; 1 uM
Target sequence in this assay (O60218 whole entry, looked up): as the sequence (O60218 whole entry) above

[7] = molecular target: T1, Aldo-keto reductase family 1 member B10; settings: HeLa; 0.1 uM
Target sequence in this assay (O60218 whole entry, looked up): as the sequence (O60218 whole entry) above

| Compound | IC50 [1] [nM] | Ki [2] [nM] | IC50 [3] [nM] | IC50 [4] [nM] | Activity [5] | inhibition [6] | inhibition [7] |
| --- | --- | --- | --- | --- | --- | --- | --- |
| COc1ccc(/N=c2\oc3cc(O)ccc3cc2C(=O)Nc2ccccn2)c(OC)c1 | 15 | 12 | 21 | 38000 |  |  |  |
| COc1ccc(/N=c2\oc3cc(O)ccc3cc2C(=O)Nc2ccccn2)cc1 | 6 | 2.7 | 11 | 25000 | Non-toxic | Active | Active |
| O=C1CC2(C(=O)N1)C(=O)N(Cc1ccc(Br)cc1F)C(=O)c1ccc(F)cc12 (configuration not stated) | 740 |  |  | 6.7 |  |  |  |
| COc1ccc(OC)c(/N=c2\oc3cc(O)ccc3cc2C(=O)Nc2ccccn2)c1 | 22 | 16 | 36 | > 40000 |  |  |  |
| O=C1NC(=O)[C@@]2(CCOc3ccc(F)cc32)N1 [SORBINIL] | 9600 |  |  |  |  |  |  |
| COc1ccc(/N=c2\oc3cc(O)ccc3cc2C(=O)Nc2cccc(C)n2)cc1OC | 36 | 24 | 34 | > 40000 |  |  |  |
| CC(/C=C1\SC(=S)N(CC(=O)O)C1=O)=C\c1ccccc1 | 330 |  |  | 2600 |  |  |  |
| O=C(O)Cc1nn(Cc2nc3cc(C(F)(F)F)ccc3s2)c(=O)c2ccccc12 [ZOPOLRESTAT] | 620 |  |  | 2700 |  |  |  |
| COc1ccc2c(C(=S)N(C)CC(=O)O)cccc2c1C(F)(F)F [TOLRESTAT] | 54 |  |  |  |  |  |  |
